The values below come from patent US11299478B2, “2-cyanopyrimidin-4-yl carbamate or urea derivative or salt thereof, and pharmaceutical composition including same” (HANLIM PHARMACEUTICAL CO., LTD., priority 2018, dated 2022).

As a reminder, the IC50 is the concentration needed to halve the response being measured.

Common to all, as to format: biochemical
The target in one assay is T1, cathepsin K (Homo sapiens, UniProt P43235).
T1 sequence (P43235 115-329): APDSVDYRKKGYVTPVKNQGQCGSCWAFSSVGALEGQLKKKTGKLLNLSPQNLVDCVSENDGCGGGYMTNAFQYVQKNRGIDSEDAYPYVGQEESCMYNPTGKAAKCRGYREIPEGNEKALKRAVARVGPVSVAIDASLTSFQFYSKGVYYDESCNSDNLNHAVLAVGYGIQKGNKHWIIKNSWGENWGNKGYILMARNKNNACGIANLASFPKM
Nature of the assay: Inhibitory activity assay against cathepsin K (enzyme assay). The settings on record: Z-Phe-Arg-AMC 10 μM, enzyme 1 nM, pH 5.5, 30 minutes. Put shortly: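 IC50 by 4-parameter logistic fit of fluorescence (ex 355 nm, em 460 nm) after 30 min reaction. Compound tested at 10 final concentrations from 10.0 μM down to 0.000508 μM against 1 nM enzyme and 10 μM Z-Phe-Arg-AMC, in MES buffer pH 5.5 with DTT, EDTA, Triton X-100 and 10% DMSO.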

Another assay has as its target cathepsin B (Homo sapiens, UniProt P07858). Nature of the assay: Inhibitory activity assay against cathepsin B (enzyme assay). The settings on record: Z-Arg-Arg-AMC 40 μM, enzyme 1 nM, pH 6.0, 90 minutes. Put shortly:
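Reaction run 90 min in MES buffer pH 6.0 containing DTT, EDTA, Polysorbate 20 and 10% DMSO, using 40 μM fluorogenic Z-Arg-Arg-AMC and 1 nM cathepsin B. Ten compound levels from 10.0 μM; AMC fluorescence at ex 340/em 460 nm fitted to a 4-parameter logistic for IC50.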

A further assay has as its target cathepsin L (Homo sapiens, UniProt P07711). Kind of assay: Inhibitory activity assay against cathepsin L (enzyme assay). The settings on record: Z-Phe-Arg-AMC 2 μM, enzyme 3 nM, pH 5.5, 30 minutes. Put shortly: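 IC50s came from 4-parameter logistic fits of ten concentrations (10.0 μM down to 0.000508 μM). Reaction: 30 min, 3 nM enzyme, 2 μM Z-Phe-Arg-AMC, pH 5.5 MES buffer containing DTT, EDTA, Polysorbate 20 and 10% DMSO; fluorescence read 340/460 nm.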

The next assay addresses cathepsin S (Homo sapiens, UniProt P25774). Nature of the assay: Inhibitory activity assay against cathepsin S (enzyme assay). Conditions: Z-Phe-Arg-AMC 70 μM, enzyme 3 nM, pH 6.5, 45 minutes. A digest of the protocol:
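Ten-point compound titration (10.0 to 0.000508 μM final) reacted 45 min with 3 nM cathepsin S and 70 μM Z-Phe-Arg-AMC in MES 50 mM pH 6.5, DTT 2.5 mM, EDTA 1.0 mM, BSA 0.001%, DMSO 10%. AMC release read at 340/460 nm; IC50 from four-parameter logistic fit.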

Sequence of cathepsin L (P07711 114-333, species assumed): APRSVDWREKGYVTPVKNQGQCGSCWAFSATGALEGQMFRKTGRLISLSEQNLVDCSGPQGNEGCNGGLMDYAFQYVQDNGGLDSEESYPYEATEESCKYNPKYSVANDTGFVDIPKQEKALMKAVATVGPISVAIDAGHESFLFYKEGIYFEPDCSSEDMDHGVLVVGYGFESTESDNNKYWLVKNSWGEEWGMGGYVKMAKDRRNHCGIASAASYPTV
Sequence of cathepsin S (P25774 115-331, species assumed): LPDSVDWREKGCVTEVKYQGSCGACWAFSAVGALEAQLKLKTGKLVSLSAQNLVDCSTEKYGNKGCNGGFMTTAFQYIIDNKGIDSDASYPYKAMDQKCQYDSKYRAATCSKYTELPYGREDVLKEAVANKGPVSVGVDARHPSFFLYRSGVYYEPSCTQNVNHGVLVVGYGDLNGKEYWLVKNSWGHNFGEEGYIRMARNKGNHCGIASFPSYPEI

For the compound `CC(=O)NCc1ccc(-c2ccc(NC(=O)NC3(c4ccnc(C#N)n4)CCCCC3)cc2)cc1` [Example 151, N-((4′-(3-(1-(2-cyanopyrimidin-4-yl)cyclohexyl)ureido)-[1,1′-biphenyl]-4-yl)methyl)acetamide], the concentration for half-maximal inhibition (IC50) on cathepsin K is 2 nM; at cathepsin B, over 10000 nM; against cathepsin L, over 10000 nM; against cathepsin S, over 10000 nM.
With `CN(C)CCOc1ccc(-c2ccc(NC(=O)NC3(c4ccnc(C#N)n4)CCCCC3)cc2)cc1` [Example 153, 1-(1-(2-cyanopyrimidin-4-yl)cyclohexyl)-3-(4′-(2-(dimethylamino)ethoxy)-[1,1′-biphenyl]-4-yl)urea], the IC50 was 0.2 nM on cathepsin K, 4800 nM at cathepsin B, 6720 nM against cathepsin L and over 10000 nM against cathepsin S.
Taken in the same sequence, the figures for `CC(C)N1CCN(c2ccc(-c3ccc(NC(=O)NC4(c5ccnc(C#N)n5)CCCCC4)cc3)cc2)CC1` [Example 154, 1-(1-(2-cyanopyrimidin-4-yl)cyclohexyl)-3-(4′-(4-isopropylpiperazin-1-yl)-[1,1′-biphenyl]-4-yl)urea] were 0.3 nM, 3210 nM, 4280 nM and over 10000 nM.
Taken in the same sequence, the figures for `CC(=O)N1CCN(c2ccc(-c3ccc(NC(=O)NC4(c5ccnc(C#N)n5)CCCCC4)cc3)cc2)CC1` [Example 155, 1-(4′(4-acetylpiperazin-1-yl)-[1,1′-biphenyl]-4-yl)-3-(1-(2-cyanopyrimidin-4-yl)cyclohexyl)urea] were 2 nM, 7340 nM, over 10000 nM and over 10000 nM.
Take `COC(=O)Cc1ccc(-c2ccc(NC(=O)NC3(c4ccnc(C#N)n4)CCCCC3)cc2)cc1` [Example 156, methyl 2-(4′-(3-(1-(2-cyanopyrimidin-4-yl)cyclohexyl)ureido)-[1,1′-biphenyl]-4-yl)acetate]: the half-maximal inhibitory concentration (IC50) at cathepsin K is 4.3 nM; against cathepsin B, over 10000 nM; against cathepsin L, over 10000 nM; on cathepsin S, over 10000 nM.
Take `COCCOCc1ccc(-c2ccc(NC(=O)NC3(c4ccnc(C#N)n4)CCCCC3)cc2)cc1` [Example 157, 1-(1-(2-cyanopyrimidin-4-yl)cyclohexyl)-3-(4′-((2-methoxyethoxy)methyl)-[1,1′-biphenyl]-4-yl)urea]: the IC50 at cathepsin K was 6.4 nM; at cathepsin B, over 10000 nM; against cathepsin L, over 10000 nM; against cathepsin S it was 4620 nM.
Turning to `N#Cc1nccc(C2(NC(=O)Nc3ccc(-c4ccc(C(=O)NCC5CCCO5)cc4)cc3)CCCCC2)n1` (stereo not shown) [Example 158, 4′-(3-(1-(2-cyanopyrimidin-4-yl)cyclohexyl)ureido)-N-((tetrahydrofuran-2-yl)methyl)-[1,1′-biphenyl]-4-carboxamide], the IC50 on cathepsin K is 6.6 nM; on cathepsin B, 5650 nM; against cathepsin L, over 10000 nM; against cathepsin S it was 9430 nM.
In the case of `CN(C)CCNC(=O)c1ccc(-c2ccc(NC(=O)NC3(c4ccnc(C#N)n4)CCCCC3)cc2)cc1` [Example 159, 4′-(3-(1-(2-cyanopyrimidin-4-yl)cyclohexyl)ureido)-N-(2-(dimethylamino)ethyl)-[1,1′-biphenyl]-4-carboxamide], the 50% inhibitory concentration (IC50) on cathepsin K is 0.6 nM; against cathepsin B, 1890 nM; at cathepsin L, 4090 nM; on cathepsin S it was over 10000 nM.
Taken in the same sequence, the figures for `CCN1CCN(c2ccc(-c3ccc(NC(=O)NC4(c5ccnc(C#N)n5)CCCCC4)cc3)cc2)CC1` [Example 160, 1-(1-(2-cyanopyrimidin-4-yl)cyclohexyl)-3-(4′-(4-ethylpiperazin-1-yl)-[1,1′-biphenyl]-4-yl)urea] were 0.1 nM, 1840 nM, 8810 nM and over 10000 nM.
Taken in the same sequence, the figures for `N#Cc1nccc(C2(NC(=O)Nc3ccc(-c4ccc(CC(=O)O)cc4)cc3)CCCCC2)n1` [Example 161, 2-(4′-(3-(1-(2-cyanopyrimidin-4-yl)cyclohexyl)ureido)-[1,1′-biphenyl]-4-yl)acetic acid] were 61.1 nM, over 10000 nM, over 10000 nM and over 10000 nM.
Taken in the same sequence, the figures for `CS(=O)(=O)c1ccc(-c2ccc(NC(=O)NC3(c4ccnc(C#N)n4)CCCCC3)cc2C(F)(F)F)cc1` [Example 162, 1-(1-(2-cyanopyrimidin-4-yl)cyclohexyl)-3-(4′-(methylsulfonyl)-2-(trifluoromethyl)-[1,1′-biphenyl]-4-yl)urea] were 8.3 nM, over 10000 nM, 6520 nM and 3950 nM.
On to `N#Cc1nccc(C2(NC(=O)Nc3ccc(-c4ccc(C(=O)O)cc4)c(C(F)(F)F)c3)CCCCC2)n1` [Example 163, 4′-(3-(1-(2-cyanopyrimidin-4-yl)cyclohexyl)ureido)-2′-(trifluoromethyl)-[1,1′-biphenyl]-4-carboxylic acid], for which the concentration for half-maximal inhibition (IC50) on cathepsin K is 25.2 nM; against cathepsin B it was over 10000 nM; at cathepsin L, over 10000 nM; at cathepsin S, 3370 nM.
As to `CC(=O)Nc1ccc(-c2ccc(NC(=O)NC3(c4ccnc(C#N)n4)CCCCC3)cc2F)cc1` [Example 164, N-(4′-(3-(1-(2-cyanopyrimidin-4-yl)cyclohexyl)ureido)-2′-fluoro-[1,1′-biphenyl]-4-yl)acetamide], the concentration for half-maximal inhibition (IC50) at cathepsin K was 6.2 nM; on cathepsin B, over 10000 nM; at cathepsin L, over 10000 nM; against cathepsin S, 4640 nM.
Take `CC(=O)NCc1ccc(-c2ccc(NC(=O)NC3(c4ccnc(C#N)n4)CCCCC3)cc2F)cc1` [Example 165, N-((4′-(3-(1-(2-cyanopyrimidin-4-yl)cyclohexyl)ureido)-2′-fluoro-[1,1′-biphenyl]-4-yl)methyl)acetamide]: the IC50 on cathepsin K was 5.7 nM; on cathepsin B, over 10000 nM; on cathepsin L, over 10000 nM; against cathepsin S it was over 10000 nM.
`CC(C)N1CCN(c2ccc(-c3ccc(NC(=O)NC4(c5ccnc(C#N)n5)CCCCC4)cc3F)cc2)CC1` [Example 166, 1-(1-(2-cyanopyrimidin-4-yl)cyclohexyl)-3-(2-fluoro-4′-(4-isopropylpiperazin-1-yl)-[1,1′-biphenyl]-4-yl)urea]: the IC50 at cathepsin K came out at 0.4 nM; against cathepsin B it was 2410 nM; against cathepsin L it was 3440 nM; on cathepsin S, 5940 nM.
For the compound `CS(=O)(=O)c1ccc(-c2ccc(NC(=O)NC3(c4ccnc(C#N)n4)CCCCC3)cc2F)cc1` [Example 167, 1-(1-(2-cyanopyrimidin-4-yl)cyclohexyl)-3-(2-fluoro-4′-(methylsulfonyl)-[1,1′-biphenyl]-4-yl)urea], the IC50 on cathepsin K was 8 nM; against cathepsin B, over 10000 nM; against cathepsin L, over 10000 nM; on cathepsin S, 1110 nM.
As to `N#Cc1nccc(C2(NC(=O)Nc3ccc(-c4ccc(C5CCN(C6CC6)CC5)cc4)c(F)c3)CCCCC2)n1` [Example 168, 1-(1-(2-cyanopyrimidin-4-yl)cyclohexyl)-3-(4′-(1-cyclopropylpiperidin-4-yl)-2-fluoro-[1,1′-biphenyl]-4-yl)urea], the IC50 at cathepsin K is 0.3 nM; against cathepsin B, over 10000 nM; at cathepsin L, over 10000 nM; against cathepsin S it was over 10000 nM.
As to `N#Cc1nccc(C2(NC(=O)Nc3ccc(-c4ccc(S(=O)(=O)C(F)(F)F)cc4)cc3)CCCCC2)n1` [Example 169, 1-(1-(2-cyanopyrimidin-4-yl)cyclohexyl)-3-(4′-((trifluoromethyl)sulfonyl)-[1,1′-biphenyl]-4-yl)urea], the concentration for half-maximal inhibition (IC50) was 74 nM on cathepsin K, over 10000 nM on cathepsin B, over 10000 nM against cathepsin L and 3600 nM against cathepsin S.
In the case of `CS(=O)(=O)c1ccc(-c2ccc(NC(=O)NC3(c4ccnc(C#N)n4)CCCCC3)cc2)cc1F` [Example 170, 1-(1-(2-cyanopyrimidin-4-yl)cyclohexyl)-3-(3′-fluoro-4′-(methylsulfonyl)-[1,1′-biphenyl]-4-yl)urea], the IC50 is 39.5 nM at cathepsin K, over 10000 nM at cathepsin B, over 10000 nM against cathepsin L and over 10000 nM against cathepsin S.
